Results on 25 compounds are retold here after patent US7049443B2, “Amide-containing compound having improved solubility and method of improving the solubility of an amide-containing compound” (Pharmacia & Upjohn Company, priority 2001, dated 2006).

“And” between values parts separate entries of the source, which are not always exact repeats. Equal values may be shown once.

Consider `NC(=O)[C@H]1CN(c2ccc([C@H]3CC[S@@+]([O-])CC3)c(F)c2)C(=O)O1` (racemic) [Example 456, (SR)-3-[3-Fluoro-4-(cis-tetrahydro-1-oxido-2H-thiopyran-4-yl)phenyl]-2-oxo-5-oxazolidinecarboxamide], for which the melting point was 279 to 281 °C (dec.). The same measure for `NC(=O)[C@H]1CN(c2ccc([C@H]3CC[S@+]([O-])CC3)cc2)C(=O)O1` (racemic) [Example 460, (SR)-3-[4-(trans-tetrahydro-1-oxido-2H-thiopyran-4-yl)phenyl]-2-oxo-5-oxazolidinecarboxamide]: 174 to 175 °C; for `NC(=O)[C@H]1CN(c2ccc(N3CCOCC3)c(F)c2)C(=O)O1` [Example 435, (5R)-(−)-3-[3-Fluoro-4-(4-morpholinyl)phenyl]-2-oxo-5-oxazolidinecarboxamide]: 185 to 187 °C (dec.); for `CNC(=O)[C@H]1CN(c2ccc(N3CCOCC3)c(F)c2)C(=O)O1` [Example 436, (5R)-(−)-3-[3-Fluoro-4-(4-morpholinyl)phenyl]-N-methyl-2-oxo-5-oxazolidinecarboxamide]: 182 to 183 °C (dec.).

On to `C=CCNC(=O)[C@H]1CN(c2ccc(N3CCOCC3)c(F)c2)C(=O)O1` [Example 437, (5R)-(−)-3-[3-Fluoro-4-(4-morpholinyl)phenyl]-N-allyl-2-oxo-5-oxazolidinecarboxamide], for which the melting point was in the range of 167 to 169 °C.

Turning to `CCCNC(=O)[C@H]1CN(c2ccc(N3CCOCC3)c(F)c2)C(=O)O1` [Example 438, (5R)-(−)-3-[3-Fluoro-4-(4-morpholinyl)phenyl]-N-propyl-2-oxo-5-oxazolidinecarboxamide], the melting point is 165 to 167 °C.

In the case of `CONC(=O)[C@H]1CN(c2ccc(N3CCOCC3)c(F)c2)C(=O)O1` [Example 439, (5R)-(−)-3-[3-Fluoro-4-(4-morpholinyl)phenyl]-N-methoxy-2-oxo-5-oxazolidinecarboxamide], the melting point was 206 to 208 °C (dec.). Turning to `O=C(NO)[C@H]1CN(c2ccc(N3CCOCC3)c(F)c2)C(=O)O1` [Example 440, (5R)-(−)-3-[3-Fluoro-4-(4-morpholinyl)phenyl]-N-hydroxy-2-oxo-5-oxazolidinecarboxamide], the melting point lay within 141 to 143 °C. The same measure for `NC(=O)[C@H]1CN(c2ccc(-c3cccnc3)c(F)c2)C(=O)O1` [Example 441, (5R)-(−)-3-[4-(3-Pyridyl)-3-fluorophenyl]-2-oxo-5-oxazolidinecarboxamide]: 240 to 242 °C (dec.). The same measure for `NC(=O)[C@H]1CN(c2ccc(-c3ccncc3)c(F)c2)C(=O)O1` [Example 442, (5R)-(−)-3-[4-(4-Pyridyl)-3-fluorophenyl]-2-oxo-5-oxazolidinecarboxamide]: 256 to 259 °C (dec.); for `NC(=O)[C@H]1CN(c2ccc(C3=CCOCC3)c(F)c2)C(=O)O1` [Example 443, (5R)-(−)-3-[4-(3,6-Dihydro-2H-pyran-4-yl)-3-fluorophenyl]-2-oxo-5-oxazolidinecarboxamide]: 164 to 169 °C; for `NC(=O)[C@H]1CN(c2ccc(C3CCOCC3)c(F)c2)C(=O)O1` [Example 444, (5R)-(−)-3-[4-(Tetrahydro-2H-pyran-4-yl)-3-fluorophenyl]-2-oxo-5-oxazolidinecarboxamide]: 153 to 156 °C. The same measure for `NC(=O)[C@H]1CN(c2ccc(C3=CC[S+]([O-])CC3)c(F)c2)C(=O)O1` (stereo partly drawn) [Example 445, (5R)-3-[4-(3,6-Dihydro-2H-thiopyran-4-yl)-3-fluorophenyl]-2-oxo-5-oxazolidinecarboxamide S-oxide]: 182 to 184 °C (dec.); for `NC(=O)[C@H]1CN(c2ccc(C3=CCS(=O)(=O)CC3)c(F)c2)C(=O)O1` [Example 446, (5R)-(−)-3-[4-(3,6-Dihydro-2H-thiopyran-4-yl)-3-fluorophenyl]-2-oxo-5-oxazolidinecarboxamide S,S-dioxide]: 206 to 208 °C. Regarding `NC(=O)[C@H]1CN(c2ccc(C3CCS(=O)(=O)CC3)c(F)c2)C(=O)O1` [Example 447, (5R)-(−)-3-[4-(Tetrahydro-2H-thiopyran-4-yl)-3-fluorophenyl]-2-oxo-5-oxazolidinecarboxamide S,S-dioxide], the melting point is 231 to 234 °C (dec.) and 229 to 231 °C (dec.). The same measure for `NC(=O)[C@H]1CN(c2ccc(N3CCN(C(=O)CO)CC3)c(F)c2)C(=O)O1` [Example 448, (5R)-(−)-3-[3-Fluoro-4-[4-(hydroxyacetyl)-1-piperazinyl]phenyl]-2-oxo-5-oxazolidinecarboxamide]: 232 to 235 °C (dec.). As for `NC(=O)[C@H]1CN(c2cc(F)c(N3CCS(=O)(=O)CC3)c(F)c2)C(=O)O1` [Example 449, (5R)-(−)-3-[4-(Thiomorpholin-4-yl)-3,5-difluorophenyl]-2-oxo-5-oxazolidinecarboxamide S,S-dioxide], the melting point is 245 to 248 °C (dec.). The same measure for `NC(=O)[C@H]1CN(c2cc(F)c(N3CCOCC3)c(F)c2)C(=O)O1` [Example 451, (5R)-(−)-3-[3,5-Difluoro-4-(4-morpholinyl)phenyl]-2-oxo-5-oxazolidinecarboxamide]: 181 to 183 °C; for `NC(=O)[C@H]1CN(c2ccc(N3CCS(=O)(=O)CC3)cc2)C(=O)O1` [Example 452, (5R)-(−)-3-[4-(Thiomorpholin-4-yl)phenyl]-2-oxo-5-oxazolidinecarboxamide S,S-dioxide]: 226 to 228 °C; for `NC(=O)[C@H]1CN(c2ccc(N3CCS(=O)(=O)CC3)c(F)c2)C(=O)O1` [Example 453, (5R)-(−)-3-[3-Fluoro-4-(thiomorpholin-4-yl)phenyl]-2-oxo-5-oxazolidinecarboxamide S,S-dioxide]: 245 to 247 °C (dec.). In the case of `NC(=O)[C@H]1CN(c2ccc(N3CC[S+]([O-])CC3)c(F)c2)C(=O)O1` [Example 454, (5R)-(−)-3-[3-Fluoro-4-(thiomorpholin-4-yl)phenyl]-2-oxo-5-oxazolidinecarboxamide S-oxide], the melting point is 264 to 266 °C (dec.).

Take `NC(=O)[C@H]1CN(c2cc(F)c(N3CC[S+]([O-])CC3)c(F)c2)C(=O)O1` [Example 455, (5R)-(−)-3-[3,5-Difluoro-4-(thiomorpholin-4-yl)phenyl]-2-oxo-5-oxazolidinecarboxamide S-oxide]: the melting point was 273 to 276 °C (dec.). The same measure for `NC(=O)[C@H]1CN(c2ccc([C@H]3CC[S@+]([O-])CC3)c(F)c2)C(=O)O1` [Example 457, (5R)-3-[3-Fluoro-4-(trans-tetrahydro-1-oxido-2H-thiopyran-4-yl)phenyl]-2-oxo-5-oxazolidinecarboxamide]: 201 to 203 °C. The same measure for `NC(=O)[C@H]1CN(c2ccc(C3CCS(=O)(=O)CC3)cc2)C(=O)O1` [Example 458, (5R)-(−)-3-[4-(tetrahydro-2H-thiopyran-4-yl)phenyl]-2-oxo-5-oxazolidinecarboxamide S,S-dioxide]: 211 to 212 °C.

As for `NC(=O)[C@H]1CN(c2ccc([C@H]3CC[S@@+]([O-])CC3)cc2)C(=O)O1` [Example 459, (5R)-3-[4-(cis-tetrahydro-1-oxido-2H-thiopyran-4-yl)phenyl]-2-oxo-S-oxazolidinecarboxamide], the melting point was 269 to 273 °C (dec.).

A word on the melting point: it is the temperature, or range, at which the solid turns liquid.
